# Experimental data taken from patent publication US20240270744A1 (Hoffmann-La Roche Inc., priority 2021, published 2024).
# Read-outs that look alike come from different tables or passages of the source.
# Key:
# h-GABA-A α2β2γ1 = h-GABA-A α2β2γ1 (Homo sapiens (Human), UniProt P47869+Q8N1C3); assay: Two-electrode voltage clamp electrophysiology in Xenopus oocytes expressing GABAA receptors; assay type: cell-based; settings: Table 2; for Efficacy (GABA) %: % modulation of GABA EC20 = 100*(Fold increase-1), compound at 30-fold Ki; for Fold increase h-GABA-A α2β2γ1 oocyte @ 30-fold Ki: GABA EC20, test compound at approx. 30-fold its Ki α2β2γ1, Xenopus oocytes, -80 mV
# Protocol: Xenopus laevis oocytes at maturation stages V-VI were used for the expression of cloned mRNA encoding GABAA receptor subunits. Oocytes ready for RNA micro-injection were bought from Ecocyte, Castrop-Rauxel, Germany and stored in modified Barth's medium (composition in mM: NaCl 88, KCl 1, NaHCO3 2.4, HEPES 10, MgSO4 0.82, CaNO3 0.33, CaCl2 0.33, pH=7.5) at 20° C. until the experiment.
# Oocytes were plated in 96-well plates for microinjection using the Roboinject automated instrument (MultiChannelSystems, Reutlingen, Germany). Approximately 50 nL of an aqueous solution containing the RNA transcripts for the subunits of the desired GABAA receptor subtype was injected into each oocyte. […] Oocytes were kept in modified Barth's medium (composition in mM: NaCl 88, KCl 1, NaHCO3 […], HEPES 10, MgSO4 0.82, CaNO3 0.33, CaCl2 0.33, pH=7.5) at 20° C. until the experiment.
# Electrophysiological experiments were performed using the Roboocyte instrument (MultiChannelSystems, Reutlingen, Germany) on days 3 to 5 after the micro-injection of mRNA. During the experiment the oocytes were constantly superfused by a solution containing (in mM) NaCl 90, KCl 1, HEPES 5, MgCl2 1, CaCl2 1 (pH 7.4). Oocytes were impaled by two glass microelectrodes (resistance: […]) which were filled with a solution containing KCl 1M+K-acetate 1.5 M and voltage-clamped to −80 mV. The recordings were performed at room temperature using the Roboocyte two-electrode voltage clamp system (Multichannelsystem). After an initial equilibration period of 1.5 min GABA was added for 1.5 min at a concentration evoking approximately 20% of a maximal current response (EC20). After another rest interval of 2.5 min GABA was again added evoking a response of similar amplitude and shape. […] Current traces were recorded at a digitization rate of 10 Hz during and shortly before and after the GABA application.
# Each compound and concentration was tested on at least 3 oocytes. Different oocytes were used for different compound concentrations.
# For the analysis, the digitized current traces of the first and second GABA response were superimposed and, if necessary, rescaled to equal maximal amplitudes. The ratio between the two responses during the time interval of test compound application was calculated point by point. The extremum of the resulting “ratio trace” was taken as the efficacy (“Fold increase”) of the compound expressed as “% modulation of GABA EC20” (100*(Fold increase−1)).
# [1] = target: human GABAA α1β3γ2 receptor (Homo sapiens (Human), UniProt P14867+P18507); assay: Radioligand binding assay, competition for [3H]Flumazenil, γ2-containing GABAA subtypes; settings: read-out: Ki h-GABAA α1β3γ2
# Protocol: The affinity of compounds at GABAA γ2 subunit-containing receptors was measured by competition for [^3H]Flumazenil (81.1 Ci/mmol; Roche) binding to HEK293F cells expressing human (transiently transfected) receptors of composition α1β3γ2.
# Harvested pellets from HEK293F cells expressing the different GABAA γ2 receptor subtypes were resuspended in Mannitol Buffer pH 7.2-7.4 and processed as described above for the cells expressing the GABAA γ1 subunit-containing receptors.
# Assays were incubated to equilibrium for 1 hour at 4° C. and harvested onto GF/C uni-filters (Packard) by filtration using a Packard harvester and washing with ice-cold wash buffer (50 mM Tris; pH 7.5). After anhydrousing, filter-retained radioactivity was detected by liquid scintillation counting. Ki values were calculated using Excel-Fit (Microsoft) and are the means of two determinations.
# [2] = Table 1, [3H]Flumazenil displacement, HEK293F cells, mean of two determinations
# [3] = Table 3, reference compounds comparison
SMILES,Efficacy (GABA) % (h-GABA-A α2β2γ1) [%],Fold increase h-GABA-A α2β2γ1 oocyte @ 30-fold Ki (h-GABA-A α2β2γ1),"Ki [1, 2] [µM]","Ki [1, 3] [µM]"
Cc1nc2n(n1)-c1cnc(C(F)(F)F)c(Cl)c1C(c1c(F)cccc1F)=N[C@H]2C [Example 5],84,1.84,4.74,–
"C[C@H](O)CNC(=O)c1nc2n(n1)-c1cnc(C(F)(F)F)c(Cl)c1C(c1c(F)cccc1F)=N[C@H]2C [Example 14, (7S)-11-chloro-9-(2,6-difluorophenyl)-N-[(2S)-2-hydroxypropyl]-7-methyl-12-(trifluoromethyl)-2,3,5,8,13-pentazatricyclo[8.4.0.02,6]tetradeca-1(10),3,5,8,11,13-hexaene-4-carboxamide]",158,2.58,8.76,–
"Cc1ncc2c(c1Cl)C(c1c(F)cccc1F)=N[C@@H](C)c1nnc(C)n1-2 [Example 3, (7S)-11-chloro-9-(2,6-difluorophenyl)-3,7,12-trimethyl-2,4,5,8,13-pentazatricyclo[8.4.0.02,6]tetradeca-1(10),3,5,8,11,13-hexaene]",66,1.66,1.79,–
"C[C@@H]1N=C(c2c(F)cccc2F)c2c(cnc(C(F)(F)F)c2Cl)-n2nc(C(=O)NCCO)nc21 [Example 15, (7S)-11-chloro-9-(2,6-difluorophenyl)-N-(2-hydroxyethyl)-7-methyl-12-(trifluoromethyl)-2,3,5,8,13-pentazatricyclo[8.4.0.02,6]tetradeca-1(10),3,5,8,11,13-hexaene-4-carboxamide]",146,2.46,9.47,–
"Cc1nnc2n1-c1cnc(C(F)(F)F)c(Cl)c1C(c1c(F)cccc1Cl)=N[C@H]2C [Example 17, (7S)-11-chloro-9-(2-chloro-6-fluoro-phenyl)-3,7-dimethyl-12-(trifluoromethyl)-2,4,5,8,13-pentazatricyclo[8.4.0.02,6]tetradeca-1(10),3,5,8,11,13-hexaene]",91,1.91,4.87,–
"Cc1nnc2n1-c1cnc(C3CC3)c(Cl)c1C(c1c(F)cccc1F)=N[C@H]2C [Example 2, (7S)-11-chloro-12-cyclopropyl-9-(2,6-difluorophenyl)-3,7-dimethyl-2,4,5,8,13-pentazatricyclo[8.4.0.02,6]tetradeca-1(10),3,5,8,11,13-hexaene]",162,2.62,3.29,–
"C[C@@H]1N=C(c2c(F)cccc2F)c2c(cnc(C(F)(F)F)c2Cl)-n2nc(NC(=O)C3COC3)nc21 [Example 12, N-[(7S)-11-chloro-9-(2,6-difluorophenyl)-7-methyl-12-(trifluoromethyl)-2,3,5,8,13-pentazatricyclo[8.4.0.02,6]tetradeca-1(10),3,5,8,11,13-hexaen-4-yl]oxetane-3-carboxamide]",143,2.43,12.3,–
"C[C@@H]1N=C(c2c(F)cccc2F)c2c(cnc(C(F)(F)F)c2Cl)-n2nc(C(=O)NCC3(O)CC3)nc21 [Example 22, (7S)-11-chloro-9-(2,6-difluorophenyl)-N-[(1-hydroxycyclopropyl)methyl]-7-methyl-12-(trifluoromethyl)-2,3,5,8,13-pentazatricyclo[8.4.0.02,6]tetradeca-1(10),3,5,8,11,13-hexaene-4-carboxamide]",172,2.72,10.6,–
"C[C@@H]1N=C(c2c(F)cccc2F)c2c(cnc(C(F)(F)F)c2Cl)-n2nc(C(=O)N3CC(F)C3)nc21 [Example 7, [(7S)-11-chloro-9-(2,6-difluorophenyl)-7-methyl-12-(trifluoromethyl)-2,3,5,8,13-pentazatricyclo[8.4.0.02,6]tetradeca-1(10),3,5,8,11,13-hexaen-4-yl]-(3-fluoroazetidin-1-yl)methanone]",85,1.85,5.1,–
"Cc1nnc2n1-c1cnc(Cl)c(Cl)c1C(c1c(F)cccc1F)=N[C@H]2C [Example 1, (7S)-11,12-dichloro-9-(2,6-difluorophenyl)-3,7-dimethyl-2,4,5,8,13-pentazatricyclo[8.4.0.02,6]tetradeca-1(10),3,5,8,11,13-hexaene]",55,1.55,1.09,–
"C[C@@H]1N=C(c2c(F)cccc2F)c2c(cnc(C(F)(F)F)c2Cl)-n2nc(C(=O)N3CC(C)(O)C3)nc21 [Example 10, [(7S)-11-chloro-9-(2,6-difluorophenyl)-7-methyl-12-(trifluoromethyl)-2,3,5,8,13-pentazatricyclo[8.4.0.02,6]tetradeca-1(10),3,5,8,11,13-hexaen-4-yl]-(3-hydroxy-3-methyl-azetidin-1-yl)methanone]",82,1.82,4.61,4.61
"COC1CN(C(=O)c2nc3n(n2)-c2cnc(C(F)(F)F)c(Cl)c2C(c2c(F)cccc2F)=N[C@H]3C)C1 [Example 9, [(7S)-11-chloro-9-(2,6-difluorophenyl)-7-methyl-12-(trifluoromethyl)-2,3,5,8,13-pentazatricyclo[8.4.0.02,6]tetradeca-1(10),3,5,8,11,13-hexaen-4-yl]-(3-methoxyazetidin-1-yl)methanone]",87,1.87,3.39,–
"Cc1nnc2n1-c1cnc(C(F)(F)F)c(Cl)c1C(c1c(F)cccc1F)=N[C@H]2C [Example 4, (7S)-11-chloro-9-(2,6-difluorophenyl)-3,7-dimethyl-12-(trifluoromethyl)-2,4,5,8,13-pentazatricyclo[8.4.0.02,6]tetradeca-1(10),3,5,8,11,13-hexaene]",116,2.16,7.27,7.27
"C[C@@H]1N=C(c2c(F)cccc2F)c2c(cnc(C(F)(F)F)c2Cl)-n2nc(C(=O)N3CCS(=O)(=O)CC3)nc21 [Example 11, [(7S)-11-chloro-9-(2,6-difluorophenyl)-7-methyl-12-(trifluoromethyl)-2,3,5,8,13-pentazatricyclo[8.4.0.02,6]tetradeca-1(10),3,5,8,11,13-hexaen-4-yl]-(1,1-dioxo-1,4-thiazinan-4-yl)methanone]",114,2.14,7.89,–
"C[C@@H]1N=C(c2c(F)cccc2F)c2c(cnc(C(F)(F)F)c2Cl)-n2c1nc1c2CCC1 [Example 20, (10S)-6-chloro-8-(2,6-difluorophenyl)-10-methyl-5-(trifluoromethyl)-1,4,9,12-tetrazatetracyclo[9.6.0.02,7.013,17]heptadeca-2(7),3,5,8,11,13(17)-hexaene]",108,2.08,1.09,–
"C[C@@H]1N=C(c2c(F)cccc2F)c2c(cnc(C(F)(F)F)c2Cl)-n2nc(N3CCCC3=O)nc21 [Example 13, 1-[(7S)-11-chloro-9-(2,6-difluorophenyl)-7-methyl-12-(trifluoromethyl)-2,3,5,8,13-pentazatricyclo[8.4.0.02,6]tetradeca-1(10),3,5,8,11,13-hexaen-4-yl]pyrrolidin-2-one]",173,2.73,5.3,–
